{
  "source": "ChEMBL document CHEMBL3507680",
  "about": "“University of Dundee, Gates Library screen for HepG2 cell viability”",
  "data": [
    {"assay": "Human HepG2 cell viability assay in 384 well format", "type": "toxicity, cell-based", "parameters": "dose 125 nL, time 70.5 hour; cytotoxicity at 70.5 h: concentration not given beside the values", "details": "HepG2 cells, read-out: Inhibition", "units": {"cytotoxicity at 70.5 h": "%"}, "values": [
      {"smiles": "CN(C)c1ncccc1CNC(=O)NCc1ccc(Cl)s1", "cytotoxicity at 70.5 h": -10.4},
      {"smiles": "Cc1nnc(NC(=O)NC(C)Cn2cccn2)s1", "note": "(stereo unspecified)", "cytotoxicity at 70.5 h": -7.53},
      {"smiles": "CC(NC(=O)NCc1cccs1)c1ccc2c(c1)CCC(=O)N2", "note": "(stereo unspecified)", "cytotoxicity at 70.5 h": -4.6},
      {"smiles": "CN(C)c1ncccc1CNC(=O)NCc1cccs1", "cytotoxicity at 70.5 h": 1.41},
      {"smiles": "COC(=O)C(NC(=O)CCOC(C)C)c1cc(F)ccc1F", "note": "(stereo unspecified)", "cytotoxicity at 70.5 h": 18.1},
      {"smiles": "COC(=O)C(NC(=O)C1CC1)c1cc(F)ccc1F", "note": "(stereo unspecified)", "cytotoxicity at 70.5 h": -0.233},
      {"smiles": "CCOCC(O)CN1CCN(C(=O)c2ccccc2F)CC1", "note": "(stereo unspecified)", "cytotoxicity at 70.5 h": -1.86},
      {"smiles": "CCNc1cc2c(nn1)CCN(C(=O)c1cccc3c1OCO3)C2", "cytotoxicity at 70.5 h": 3.22},
      {"smiles": "CNc1cc2c(nn1)CCN(C(=O)c1ccc3c(c1)OCO3)C2", "cytotoxicity at 70.5 h": -8.95},
      {"smiles": "Nc1cc2c(nn1)CCN(C(=O)c1cccc3c1OCO3)C2", "cytotoxicity at 70.5 h": 2.4},
      {"smiles": "Cc1cnn(CCC(=O)N2CCCC(c3noc(C)n3)C2)c1", "note": "(stereo unspecified)", "cytotoxicity at 70.5 h": 1.71},
      {"smiles": "O=C(CCN1CCOC(CNc2cccnn2)C1)NC1CCCCC1", "note": "(stereo unspecified)", "cytotoxicity at 70.5 h": 11.1},
      {"smiles": "NC(=O)C1CCN(C(=O)c2cccn2Cc2cccs2)CC1", "cytotoxicity at 70.5 h": -4.99},
      {"smiles": "CC(NC(=O)NCCS(C)(=O)=O)c1ccc2c(c1)CCC(=O)N2", "note": "(stereo unspecified)", "cytotoxicity at 70.5 h": 2.87},
      {"smiles": "Cc1nc(C)c(CN2CCC(N(C)Cc3noc(C4CC4)n3)C2)s1", "note": "(stereo unspecified)", "cytotoxicity at 70.5 h": 21.6},
      {"smiles": "Cc1csc(C2CCCCN2C(=O)c2cn[nH]c2C)n1", "note": "(stereo unspecified)", "cytotoxicity at 70.5 h": 16.7},
      {"smiles": "CCc1cnc(CN2CCC(N(C)Cc3noc(C)n3)C2)o1", "note": "(stereo unspecified)", "cytotoxicity at 70.5 h": 17},
      {"smiles": "Cc1nn(C)c(C)c1C1CCCN1C(=O)CCCNc1ncccn1", "note": "(stereo unspecified)", "cytotoxicity at 70.5 h": -8.51},
      {"smiles": "CNS(=O)(=O)c1cccc(C(=O)N(C)Cc2ccsc2)c1", "cytotoxicity at 70.5 h": -7.55},
      {"smiles": "Cc1nn(C)c(C)c1C1CCCN1C(=O)CCCc1ccccn1", "note": "(stereo unspecified)", "cytotoxicity at 70.5 h": -4.63},
      {"smiles": "CC(=O)NCc1ccc(C(=O)N2CCCC2c2cnn(C)c2)cc1", "note": "(stereo unspecified)", "cytotoxicity at 70.5 h": -6.89},
      {"smiles": "CN(Cc1ccccc1)C(=O)CN1CCCC(Cn2cncn2)C1", "note": "(stereo unspecified)", "cytotoxicity at 70.5 h": -7.31},
      {"smiles": "COc1ccc(CCNC(=O)N2CCCC(c3nncn3C)C2)cc1", "note": "(stereo unspecified)", "cytotoxicity at 70.5 h": -4.56},
      {"smiles": "Cc1nc(CN(C)C2CCN(Cc3cnc(C)s3)C2)no1", "note": "(stereo unspecified)", "cytotoxicity at 70.5 h": -3.46},
      {"smiles": "Cc1nnc(NC(=O)NCc2ccc(F)cc2)s1", "cytotoxicity at 70.5 h": -1.95},
      {"smiles": "Cc1nnc(NC(=O)NCc2ccc(N3CCC(C)CC3)nc2)s1", "cytotoxicity at 70.5 h": -8.92},
      {"smiles": "Cc1nnc(NC(=O)NCc2ccc(N3CCOCC3)nc2)s1", "cytotoxicity at 70.5 h": -5.81},
      {"smiles": "CCN(CC)CCn1c(NC(=O)c2scnc2C)nc2ccccc21", "cytotoxicity at 70.5 h": 5.56},
      {"smiles": "Cn1cnnc1C1CCCN(C(=O)NCCn2ccnc2)C1", "note": "(stereo unspecified)", "cytotoxicity at 70.5 h": -10.4},
      {"smiles": "CCOCCCn1c(NC(=O)c2ccnc(C)n2)nc2ccccc21", "cytotoxicity at 70.5 h": 25.9},
      {"smiles": "CN(Cc1ccco1)C(=O)CN1CCCC1Cn1cncn1", "note": "(stereo unspecified)", "cytotoxicity at 70.5 h": 3.18},
      {"smiles": "Cc1ccc(CN(C)C(=O)CN2CCCC(Cn3cncn3)C2)cc1", "note": "(stereo unspecified)", "cytotoxicity at 70.5 h": 22.9},
      {"smiles": "Cc1csc(C2CCCCN2C(=O)c2cc(C3CC3)[nH]n2)n1", "note": "(stereo unspecified)", "cytotoxicity at 70.5 h": -2.5},
      {"smiles": "CC(=O)N1CCCC1C(=O)NCCOc1c(C)cccc1C", "note": "(stereo unspecified)", "cytotoxicity at 70.5 h": -1.77},
      {"smiles": "CCc1nc2n(n1)CC(NCc1cc(OC)c3c(c1)OCO3)CC2", "note": "(stereo unspecified)", "cytotoxicity at 70.5 h": 1.22},
      {"smiles": "CN(CC(C)(C)O)C1CCCN(Cc2noc(C3CC3)n2)C1", "note": "(stereo unspecified)", "cytotoxicity at 70.5 h": 41.7},
      {"smiles": "Cc1cnn(CC(C)NCC(=O)NCCOc2ccccc2)c1", "note": "(stereo unspecified)", "cytotoxicity at 70.5 h": 11.7},
      {"smiles": "Cc1cnn(CCNCC(=O)NCCOc2ccc(F)cc2)c1", "cytotoxicity at 70.5 h": -9.5},
      {"smiles": "CC(C)c1ncncc1C(=O)N1CCCN(Cc2ccccc2)CC1", "cytotoxicity at 70.5 h": -15.3},
      {"smiles": "c1ccc(Cc2noc(CN3CCc4c(ncn4C4CC4)C3)n2)cc1", "cytotoxicity at 70.5 h": 11.8},
      {"smiles": "Cc1cc(CN2CCN(C(=O)NCc3csc(C)n3)CC2)on1", "cytotoxicity at 70.5 h": -13},
      {"smiles": "O=C(NCCNc1ncccn1)c1ccc(Br)cc1", "cytotoxicity at 70.5 h": -15.1},
      {"smiles": "Cc1cc(CN2CCN(C(=O)NCc3cccs3)CC2)on1", "cytotoxicity at 70.5 h": -14.6},
      {"smiles": "Cc1cccc(CN(Cc2nc3c(cnn3C)c(=O)[nH]2)C2CC2)c1", "cytotoxicity at 70.5 h": -6.88},
      {"smiles": "CN(Cc1ccc2c(c1)OCCO2)Cc1nc2c(cnn2C)c(=O)[nH]1", "cytotoxicity at 70.5 h": -5.53},
      {"smiles": "CC(C)OCCCNC(=O)CN1C=Nc2ccccc2S1(=O)=O", "cytotoxicity at 70.5 h": -7.79},
      {"smiles": "CCCNC(=O)NC(=O)CN1C=Nc2ccccc2S1(=O)=O", "cytotoxicity at 70.5 h": -11.8},
      {"smiles": "Cc1noc(Cl)c1CCC(=O)N1CCN(c2ccccc2)CC1", "cytotoxicity at 70.5 h": 7.33},
      {"smiles": "O=C(CN1C=Nc2ccccc2S1(=O)=O)NCC1CC1", "cytotoxicity at 70.5 h": -7.99},
      {"smiles": "COc1cc(CCC(=O)NC2CCCN(C)C2)ccc1OCC(F)(F)F", "note": "(stereo unspecified)", "cytotoxicity at 70.5 h": -7.07},
      {"smiles": "CCc1ncncc1C(=O)N1CCN(Cc2ccsc2)CC1", "cytotoxicity at 70.5 h": 7.59},
      {"smiles": "Cc1cc(NC(=O)CN2CCCC2Cn2nc(C)nc2C)on1", "note": "(stereo unspecified)", "cytotoxicity at 70.5 h": -6.45},
      {"smiles": "Cc1cnn(C2CN(CC(=O)NCCOc3ccccc3)C2)c1", "cytotoxicity at 70.5 h": -4.92},
      {"smiles": "O=C(COC1CCCCC1)NS(=O)(=O)c1ccc2c(c1)OCCCO2", "cytotoxicity at 70.5 h": 13.6},
      {"smiles": "Cc1cc(CN2CCN(C(=O)NCCc3csc(C)n3)CC2)on1", "cytotoxicity at 70.5 h": -11.6},
      {"smiles": "O=C(COC1CCCC1)NS(=O)(=O)c1ccc2c(c1)OCCCO2", "cytotoxicity at 70.5 h": -6.27}
    ]}
  ]
}
